Molecules are shown by their SMILES. The source made the active and inactive calls. The calls are words filed in the database; no cut-off is given here.

Drawing on ChEMBL document CHEMBL5620413, “Novel pterostilbene derivatives ameliorate heart failure by reducing oxidative stress and inflammation through regulating Nrf2/NF-κB signaling pathway” (Eur J Med Chem, 2023), this text covers Activity for 18 compounds.

In this assay the test system is RAW264.7. Put plainly: Antiinflammatory activity in mouse RAW264.7 cells assessed as decrease in LPS-induced NO production at 10 uM preincubated for 1 hr followed by LPS treatment for 24 hrs by Griess reagent based assay. The settings on record: time 25.0 hrs. It is filed as functional, cell-based.
With `CCC(C)Oc1ccc(/C=C/c2cc(OC)cc(OC)c2C2CC(C)=NN2C(C)=O)cc1` (stereo not drawn), the result was Active.

Take `CCCCOc1ccc(/C=C/c2cc(OC)cc(OC)c2/C=C/C(=O)c2cccc(C)c2)cc1`: the outcome was Active.

On to `COc1cc(/C=C/c2ccc(OCC3CCCCC3)cc2)c(C2CC(C)=NN2C(C)=O)c(OC)c1` (stereo not drawn), for which the outcome was Active. Turning to `COCCCCOc1ccc(/C=C/c2cc(OC)cc(OC)c2C2CC(C)=NN2C(C)=O)cc1` (stereo not drawn), the result was Active.

As to `COCCOc1ccc(/C=C/c2cc(OC)cc(OC)c2/C=C/C(=O)c2cccc(OC)c2)cc1`, the result was Active. Under `C=CCOc1ccc(/C=C/c2cc(OC)cc(OC)c2/C=C/C(=O)c2cccc(Br)c2)cc1` stands “Active”; under `COCCCCOc1ccc(/C=C/c2cc(OC)cc(OC)c2/C=C/C(=O)c2cccc(C)c2)cc1`, “Active”; under `COc1cc(/C=C/c2ccc(OCCOc3ccccc3)cc2)c(C2CC(C)=NN2C(C)=O)c(OC)c1` (stereo not drawn), “Active”.

`COCCOc1ccc(/C=C/c2cc(OC)cc(OC)c2/C=C/C(=O)c2ccccc2)cc1`: the result was Active. Under `C=CCOc1ccc(/C=C/c2cc(OC)cc(OC)c2/C=C/C(=O)c2ccccc2)cc1` stands “Active”. Under `C=CCOc1ccc(/C=C/c2cc(OC)cc(OC)c2C2CC(C)=NN2C(C)=O)cc1` (stereo not drawn) stands “Active”; under `COCCOc1ccc(/C=C/c2cc(OC)cc(OC)c2/C=C/C(=O)c2cccc(C)c2)cc1`, “Active”; under `CCCCOc1ccc(/C=C/c2cc(OC)cc(OC)c2/C=C/C(=O)c2cccc(Br)c2)cc1`, “Active”.

As to `C=CCOc1ccc(/C=C/c2cc(OC)cc(OC)c2/C=C/C(=O)c2cccc(C)c2)cc1`, the outcome was Active. The result for `CCCOc1ccc(/C=C/c2cc(OC)cc(OC)c2C2CC(C)=NN2C(C)=O)cc1` (stereo not drawn) reads “Active”; that for `COc1cc(/C=C/c2ccc(OCc3ccc(F)cc3)cc2)c(/C=C/C(=O)c2cccc(C)c2)c(OC)c1`, “Active”. Under `C=CCOc1ccc(/C=C/c2cc(OC)cc(OC)c2/C=C/C(=O)c2cccc(OC)c2)cc1` stands “Active”; under `CCCOc1ccc(/C=C/c2cc(OC)cc(OC)c2/C=C/C(=O)c2cccc(C)c2)cc1`, “Active”.
